Test results: publication PMC4704194, “Structural Basis of Metallo-β-Lactamase Inhibition by Captopril Stereoisomers” (Antimicrobial Agents and Chemotherapy, 2015)
Values after ≈ are worked out from the molar mass of the structure shown.

Legend:
[1] = test system: E. coli J53 + VIM-2 transconjugant; assay: MIC, broth microdilution; assay type: cell-based, Escherichia coli; conditions: captopril where added at 8 mg/liter
Description: (§1) The bacteria used were nonclonal international isolates whose mechanisms of carbapenem resistance have been defined genetically by sequencing. E. coli ATCC 25922 was used as a negative control. MBL genes were obtained by PCR using standard procedures and were inserted into a pK18 vector which was used to transform E. coli J53 ([34]). Transconjugants were obtained with MBL genes carried on native wild-type plasmids conjugated into J53 ([35]). Both transformants and transconjugants were confirmed by DNA sequencing and verified for MBL production by using MTS MBL strips (Liofilchem, Roseto, Italy). Additionally, 5 Escherichia coli (with NDM-1), 10 Klebsiella pneumoniae (5 with NDM-1, 3 with VIM-4, and 2 with IMP-4), 1 Serratia marcescens (with IMP-4), and 2 Pseudomonas aeruginosa (with VIM-2 and AIM-1) isolates and E. coli ATCC 25922 were used in the test panel. MICs were determined using the broth microdilution method according to CLSI guidelines. Strains were cultured and tested in cation-adjusted Mueller-Hinton agar and broth (Becton Dickinson).

[2] = test system: E. coli J53 + NDM-1 clone; assay: MIC, broth microdilution; assay type: cell-based, Escherichia coli; conditions: captopril where added at 8 mg/liter
Description: as §1

[3] = test system: E. coli J53 + VIM-2 clone; assay: MIC, broth microdilution; assay type: cell-based, Escherichia coli; conditions: captopril where added at 8 mg/liter
Description: as §1

[4] = test system: E. coli J53 + IMP-1 clone; assay: MIC, broth microdilution; assay type: cell-based, Escherichia coli; conditions: captopril where added at 8 mg/liter
Description: as §1

[5] = test system: E. coli J53 + NDM-1 transconjugant; assay: MIC, broth microdilution; assay type: cell-based, Escherichia coli; conditions: captopril where added at 8 mg/liter
Description: as §1, with “E. coli ATCC 25922 was used as a negative control.” left out, “Additionally, 5 Escherichia coli (with NDM-1), 10 Klebsiella pneumoniae (5 with NDM-1, 3 with VIM-4, and 2 with IMP-4), 1 Serratia marcescens (with IMP-4), and 2 Pseudomonas aeruginosa (with VIM-2 and AIM-1) isolates and E. coli ATCC 25922 were used in the test panel.” left out

E. coli IR15 (NDM-1) = assay: MIC, broth microdilution; assay type: cell-based, Escherichia coli; conditions: captopril where added at 8 mg/liter
Description: as §1

E. coli IR10 (NDM-1) = assay: MIC, broth microdilution; assay type: cell-based, Escherichia coli; conditions: captopril where added at 8 mg/liter
Description: as §1

E. coli IR24 (NDM-1) = assay: MIC, broth microdilution; assay type: cell-based, Escherichia coli; conditions: captopril where added at 8 mg/liter
Description: as §1

E. coli 25922 = assay: MIC, broth microdilution; assay type: cell-based, Escherichia coli; conditions: E. coli 25922 (negative control); captopril where added at 8 mg/liter
Description: as §1, with “E. coli ATCC 25922 was used as a negative control.” left out, “Additionally, 5 Escherichia coli (with NDM-1), 10 Klebsiella pneumoniae (5 with NDM-1, 3 with VIM-4, and 2 with IMP-4), 1 Serratia marcescens (with IMP-4), and 2 Pseudomonas aeruginosa (with VIM-2 and AIM-1) isolates and E. coli ATCC 25922 were used in the test panel.” left out

[6] = test system: K. pneumoniae A34 (VIM-4); assay: MIC, broth microdilution; assay type: cell-based, Klebsiella pneumoniae; conditions: captopril where added at 8 mg/liter
Description: as §1

[7] = test system: K. pneumoniae B19 (IMP-4); assay: MIC, broth microdilution; assay type: cell-based, Klebsiella pneumoniae; conditions: captopril where added at 8 mg/liter
Description: as §1

[8] = test system: K. pneumoniae IR8 (NDM-1); assay: MIC, broth microdilution; assay type: cell-based, Klebsiella pneumoniae; conditions: captopril where added at 8 mg/liter
Description: as §1

[9] = test system: K. pneumoniae B12 (IMP-4); assay: MIC, broth microdilution; assay type: cell-based, Klebsiella pneumoniae; conditions: captopril where added at 8 mg/liter
Description: as §1

[10] = test system: K. pneumoniae IR19 (NDM-1); assay: MIC, broth microdilution; assay type: cell-based, Klebsiella pneumoniae; conditions: captopril where added at 8 mg/liter
Description: as §1

[11] = test system: K. pneumoniae N16 (NDM-1); assay: MIC, broth microdilution; assay type: cell-based, Klebsiella pneumoniae; conditions: captopril where added at 8 mg/liter
Description: as §1

[12] = test system: K. pneumoniae HR8 (NDM-1); assay: MIC, broth microdilution; assay type: cell-based, Klebsiella pneumoniae; conditions: captopril where added at 8 mg/liter
Description: as §1

[13] = test system: K. pneumoniae A35 (VIM-4); assay: MIC, broth microdilution; assay type: cell-based, Klebsiella pneumoniae; conditions: captopril where added at 8 mg/liter
Description: as §1

[14] = test system: K. pneumoniae A33 (VIM-4); assay: MIC, broth microdilution; assay type: cell-based, Klebsiella pneumoniae; conditions: captopril where added at 8 mg/liter
Description: as §1

[15] = test system: S. marcescens B13 (IMP-4); assay: MIC, broth microdilution; assay type: cell-based, Serratia marcescens; conditions: captopril where added at 8 mg/liter
Description: as §1

CphA = conditions: B2 MBL ref 18; cited from earlier work
VIM-4 = VIM-4 (Pseudomonas aeruginosa, UniProt Q8KRJ3); assay: MBL inhibition assay, VIM-4; assay type: biochemical
Description: (§2) Recombinant forms of NDM-1, VIM-2, VIM-4, SPM-1, IMP-1, and BcII MBLs were produced in Escherichia coli as described previously ([27], [28]).
(§3) Kinetic and inhibition assays with the bacterial MBLs, human angiotensin-converting enzyme 2 (hACE-2), and hydroxyacylglutathione hydrolase, human glyoxylase II (hHAGH), were performed as described previously ([7], [27]).

DCLRE1A = molecular target: T1, DCLRE1A (Homo sapiens, UniProt Q6PJP8); assay: Nuclease assay, DCLRE1A; conditions: at 100 μM, standard assay conditions
T1 sequence (Q6PJP8 608-1040 limits assumed): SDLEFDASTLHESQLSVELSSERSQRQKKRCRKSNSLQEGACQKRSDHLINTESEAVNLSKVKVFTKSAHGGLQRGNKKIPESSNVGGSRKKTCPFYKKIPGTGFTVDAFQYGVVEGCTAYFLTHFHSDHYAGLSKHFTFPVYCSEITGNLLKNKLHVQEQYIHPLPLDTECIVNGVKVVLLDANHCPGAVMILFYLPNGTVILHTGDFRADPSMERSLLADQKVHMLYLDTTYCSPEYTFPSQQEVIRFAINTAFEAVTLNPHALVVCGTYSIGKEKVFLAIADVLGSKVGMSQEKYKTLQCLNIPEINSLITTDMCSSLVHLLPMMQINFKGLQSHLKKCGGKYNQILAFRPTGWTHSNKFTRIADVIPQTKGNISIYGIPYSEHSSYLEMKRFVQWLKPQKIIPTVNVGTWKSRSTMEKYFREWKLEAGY
Description: (§4) Nuclease assays with DCLRE1A and DCLRE1B (DNA cross-link repair enzymes 1A and 1B) ([33]) were performed according to a previously described method ([33]), employing a 21-nucleotide DNA oligonucleotide with a fluorescein label at its 3′ end. In brief, exonuclease activity was measured using ΔN-DCLRE1A (3.5 ng; 8 nM) or ΔC-DCLRE1B (1.5 ng; 4 nM) mixed with 1 pmol (1 μM) of 3′-fluorescein-labeled DNA substrate in 10 μl of 20 mM HEPES, pH 7.9, 50 mM KCl, 10 mM MgCl2, 0.5 mM dithiothreitol (DTT), 0.05% Triton-X, 0.1 mg/ml bovine serum albumin (BSA), and 5% glycerol.
(§5) [SNM1A] = [SNM1B] = 0.8 nM; [21nt fluor-ssDNA] = 1 µM, assay time = 20 mins

DCLRE1B = molecular target: T2, DCLRE1B (Homo sapiens, UniProt Q9H816); assay: Nuclease assay, DCLRE1B; conditions: at 100 μM, standard assay conditions
T2 sequence (Q9H816 1-335 limits assumed): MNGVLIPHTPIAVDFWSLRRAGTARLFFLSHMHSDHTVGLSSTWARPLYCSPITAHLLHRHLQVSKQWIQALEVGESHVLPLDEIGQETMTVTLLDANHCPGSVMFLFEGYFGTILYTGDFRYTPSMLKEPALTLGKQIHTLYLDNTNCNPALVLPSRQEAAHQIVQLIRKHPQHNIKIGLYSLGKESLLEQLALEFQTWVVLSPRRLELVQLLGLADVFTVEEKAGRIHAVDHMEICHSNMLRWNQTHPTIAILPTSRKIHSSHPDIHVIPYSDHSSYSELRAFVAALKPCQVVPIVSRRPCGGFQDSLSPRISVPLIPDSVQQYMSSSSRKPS
Description: as §4, §5

[16] = molecular target: hydroxyacylglutathione hydrolase, human glyoxylase II (hHAGH) (Homo sapiens, UniProt Q16775); assay: Inhibition assay, hHAGH; assay type: biochemical; conditions: at 100 μM, standard assay conditions
Description: as §3

FEZ-1 = molecular target: FEZ-1; set-up: method as in PMID 12507470; conditions: B3 MBL ref 23; cited from earlier work
[17] = molecular target: human angiotensin-converting enzyme 2 (hACE-2) (Homo sapiens, UniProt Q9BYF1); assay: Inhibition assay, hACE-2; assay type: biochemical; conditions: at 100 μM, standard assay conditions
Description: as §3

SPM-1 = SPM-1 (Pseudomonas aeruginosa, UniProt Q8G9Q0); assay: MBL inhibition assay, SPM-1
Description: as §2, §3

IMP-1 = IMP-1 (Serratia marcescens, UniProt P52699); assay: MBL inhibition assay, IMP-1
Description: as §2, §3

VIM-2 = molecular target: T3, VIM-2 (Escherichia coli, UniProt Q5U7L7); assay: biochemical; conditions: means ± standard deviations, three or more experiments
T3 construct: made in house; host or cells: Escherichia coli
Description: as §2, §3

NDM-1 = molecular target: T4, NDM-1 (Klebsiella pneumoniae, UniProt C7C422); assay: biochemical
T4 construct: made in house; host or cells: Escherichia coli
Description: as §2, §3

BcII = BcII (Bacillus cereus, UniProt P04190); assay: MBL inhibition assay, BcII
Chain of BcII (P04190 31-257): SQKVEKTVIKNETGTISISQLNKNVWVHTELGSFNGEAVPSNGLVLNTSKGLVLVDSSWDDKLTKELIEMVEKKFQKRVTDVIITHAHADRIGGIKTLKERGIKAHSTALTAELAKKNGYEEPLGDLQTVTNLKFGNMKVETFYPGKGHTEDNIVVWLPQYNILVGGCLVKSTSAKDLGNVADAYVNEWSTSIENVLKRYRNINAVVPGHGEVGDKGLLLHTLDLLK
Description: as §2, §3

Chain of human angiotensin-converting enzyme 2 (hACE-2) (Q9BYF1 18-805): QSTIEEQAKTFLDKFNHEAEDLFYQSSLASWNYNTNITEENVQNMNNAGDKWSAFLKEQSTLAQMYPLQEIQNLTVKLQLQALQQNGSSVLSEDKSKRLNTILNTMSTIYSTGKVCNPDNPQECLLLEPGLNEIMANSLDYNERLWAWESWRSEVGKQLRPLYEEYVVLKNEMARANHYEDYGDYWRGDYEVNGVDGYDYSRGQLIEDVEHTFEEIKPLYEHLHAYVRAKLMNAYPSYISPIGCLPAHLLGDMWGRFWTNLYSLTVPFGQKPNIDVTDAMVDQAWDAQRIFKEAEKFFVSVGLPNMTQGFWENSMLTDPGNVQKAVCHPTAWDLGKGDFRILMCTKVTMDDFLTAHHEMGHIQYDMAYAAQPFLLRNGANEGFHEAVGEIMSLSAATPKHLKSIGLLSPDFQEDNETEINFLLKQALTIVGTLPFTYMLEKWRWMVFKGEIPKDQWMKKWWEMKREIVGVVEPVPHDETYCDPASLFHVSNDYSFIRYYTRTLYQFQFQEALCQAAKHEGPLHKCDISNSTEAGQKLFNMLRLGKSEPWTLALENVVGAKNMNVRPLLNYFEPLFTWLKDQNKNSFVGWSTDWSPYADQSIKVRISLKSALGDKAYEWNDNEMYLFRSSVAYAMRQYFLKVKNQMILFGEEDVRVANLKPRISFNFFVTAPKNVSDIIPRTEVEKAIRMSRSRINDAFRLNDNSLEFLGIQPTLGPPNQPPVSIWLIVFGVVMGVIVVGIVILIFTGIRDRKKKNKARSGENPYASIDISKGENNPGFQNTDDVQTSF
Chain of IMP-1 (P52699 19-246 limits assumed): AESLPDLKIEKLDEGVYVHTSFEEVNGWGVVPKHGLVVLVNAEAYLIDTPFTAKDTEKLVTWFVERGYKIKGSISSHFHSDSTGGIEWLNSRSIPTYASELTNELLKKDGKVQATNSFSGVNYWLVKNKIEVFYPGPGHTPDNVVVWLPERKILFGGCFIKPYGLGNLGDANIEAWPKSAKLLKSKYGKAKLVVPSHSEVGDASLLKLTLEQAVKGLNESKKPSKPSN
Chain of SPM-1 (Q8G9Q0 entry or part of it): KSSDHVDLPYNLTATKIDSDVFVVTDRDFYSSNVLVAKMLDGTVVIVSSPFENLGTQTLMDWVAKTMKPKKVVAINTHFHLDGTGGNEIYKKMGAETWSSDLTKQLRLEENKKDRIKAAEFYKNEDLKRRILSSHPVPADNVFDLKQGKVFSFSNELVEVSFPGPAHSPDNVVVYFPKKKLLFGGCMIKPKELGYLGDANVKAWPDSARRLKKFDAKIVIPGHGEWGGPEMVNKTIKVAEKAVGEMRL
T4 sequence (C7C422 29-270 limits assumed): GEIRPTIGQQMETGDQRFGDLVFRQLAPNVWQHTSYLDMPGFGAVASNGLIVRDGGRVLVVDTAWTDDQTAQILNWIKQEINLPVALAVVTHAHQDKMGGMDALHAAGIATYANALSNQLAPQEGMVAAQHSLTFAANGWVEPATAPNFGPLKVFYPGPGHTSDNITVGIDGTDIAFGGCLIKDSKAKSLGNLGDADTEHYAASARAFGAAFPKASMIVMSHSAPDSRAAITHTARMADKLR

SMILES | MIC [1] [µg/mL] | MIC [2] [µg/mL] | MIC [3] [µg/mL] | MIC [4] [µg/mL] | IC50 (VIM-4) [µM] | inhibition of DCLRE1A (DCLRE1A) | inhibition of DCLRE1B (DCLRE1B) | inhibition of hHAGH [16] | inhibition of hACE-2 [17] | other results
CC(C)(O/N=C(\C(=O)N[C@@H]1C(=O)N2C(C(=O)[O-])=C(C[n+]3ccccc3)CS[C@H]12)c1csc(N)n1)C(=O)O [CFZ, ceftazidime] | 32 (≈ 58.5 µM) | 512 (≈ 937 µM) | 32 (≈ 58.5 µM) | 128 (≈ 234 µM) |  |  |  |  |  | MIC [5]: 512 µg/mL (≈ 937 µM)
C[C@@H](O)[C@H]1C(=O)N2C(C(=O)O)=C(S[C@@H]3CN[C@H](C(=O)N(C)C)C3)[C@H](C)[C@H]12 [MEM, meropenem] | 2 (≈ 5.22 µM) | 64 (≈ 167 µM) | 8 (≈ 20.9 µM) | 1 (≈ 2.61 µM) |  |  |  |  |  | MIC (E. coli IR15 (NDM-1)): 8 µg/mL (≈ 20.9 µM); MIC (E. coli IR10 (NDM-1)): 64 µg/mL (≈ 167 µM); MIC (E. coli IR24 (NDM-1)): 512 µg/mL (≈ 1340 µM); MIC (E. coli 25922): < 0.125 µg/mL; MIC [6]: 8 µg/mL (≈ 20.9 µM); MIC [7]: 32 µg/mL (≈ 83.4 µM); MIC [8]: 16 µg/mL (≈ 41.7 µM); MIC [9]: 8 µg/mL (≈ 20.9 µM); MIC [10]: 8 µg/mL (≈ 20.9 µM); MIC [11]: 32 µg/mL (≈ 83.4 µM); MIC [12]: 64 µg/mL (≈ 167 µM); MIC [13]: 16 µg/mL (≈ 41.7 µM); MIC [14]: 8 µg/mL (≈ 20.9 µM); MIC [15]: 4 µg/mL (≈ 10.4 µM)
C[C@@H](CS)C(=O)N1CCC[C@H]1C(=O)O [D-Captopril, (2S)-1-[(2R)-2-methyl-3-sulfanylpropanoyl] pyrrolidine-2-carboxylic acid] |  |  |  |  | 1.7 ± 0.4 | no inhibition | no inhibition | no inhibition | no inhibition | Ki (CphA): 72 µM; Ki (FEZ-1): 400 µM
C[C@H](CS)C(=O)N1CCC[C@H]1C(=O)O [L-Captopril, (2S)-1-[(2S)-2-Methyl-3-sulfanylpropanoyl] pyrrolidine-2-carboxylic acid] |  |  |  |  | 3.9 ± 0.5 | no inhibition | no inhibition | no inhibition | no inhibition | 
O=C(O)C1CCCN1C(=O)c1ccccc1S [D-MBP, 1-(2-mercaptobenzoyl)pyrrolidine-2-carboxylic acid] |  |  |  |  |  | no inhibition | no inhibition | no inhibition | no inhibition | IC50 (SPM-1): > 500 µM; IC50 (IMP-1): > 500 µM; IC50 (VIM-2): > 500 µM; IC50 (NDM-1): > 500 µM; IC50 (BcII): > 500 µM
